What all share (format): physicochemical
Data set [1] is described as follows: Dimensions (size, PDI) of DNPs co-assembled from IAJDs and Luc-mRNA by DLS. As for the experimental part:
Dynamic Light Scattering (DLS) for the DNPs was performed in buffer with a Malvern Instruments particle sizer (Zetasizer Nano S, Malvern Instruments, UK) equipped with 4 mW He—Ne laser 633 nm and avalanche photodiode positioned at […] to the beam and temperature-controlled cuvette holder. Instrument parameters were determined automatically along with measurement times.
Formulation of DNPs Containing mRNA-Luc: IAJDs were dissolved in ethanol with various initial concentrations (5-160 mg/mL). Nucleoside-modified mRNA encoding firefly luciferase (mRNA-Luc) was dissolved in water with various initial concentrations (1-4 mg/mL). 12.5 μL of mRNA solution was placed into a clean RNAs free eppendorf (1.5 mL) and mixed with 463 μL of citrate buffer (10 mM, pH 3.0)/acetate buffer (10 mM). For encapsulation of mRNA into IAJDs, 25 μL of IAJDs of the ethanol stock solution was rapidly injected into mRNA solution in citrate or acetate buffer followed by vortex for 5 seconds.
Dynamic Light Scattering (DLS) for the sizes and polydispersities of DNPs was performed on a Malvern Instruments particle sizer (Zetasizer Nano S, Malvern Instruments, UK) equipped with 4 mW He—Ne laser 633 nm and avalanche photodiode positioned at […] to the beam and temperature-controlled cuvette holder. Instrument parameters were determined automatically along with measurement times. Sample solution (0.4 mL) was placed in a semi-micro cuvette (1.6 mL, polystyrene, 10×10×45 mm, manufactured by Greiner Bio-One) and the measurements were performed at 23° C.
Formulation of DNPs obtained by co-assembly of IAJDs and Luc-mRNA was performed as follows. IAJDs were dissolved in ethanol with an initial concentration of 80 mg/mL. Nucleoside-modified mRNA encoding firefly luciferase (Luc-mRNA) was dissolved in UltraPure DNase/RNase-free distilled water with an initial concentration of 4.0 mg/mL. 12.5 μL of Luc-mRNA solution was placed into a clean RNAs free eppendorf (1.5 mL) and 463 μL acetate buffer (10 mM, pH 4.0) was added. Then, 25 μL of IAJD in the ethanol stock solution was rapidly injected into the Luc-mRNA solution in acetate buffer followed by vortex for 5 seconds.
Dynamic Light Scattering (DLS) for the dimensions (sizes and polydispersities) of DNPs was performed on a Malvern Instruments particle sizer (Zetasizer Nano S, Malvern Instruments, UK) equipped with 4 mW He—Ne laser 633 nm and avalanche photodiode positioned at 175° to the beam and temperature-controlled cuvette holder. Instrument parameters were set up automatically along with measurement times. Sample solution (c.a. 0.4 mL) was placed in a semi-micro cuvette (1.6 mL, polystyrene, 10×10×45 mm, Greiner Bio-One) and the measurements were performed at 23° C.
Formulation of DNPs Co-assembled from IAJDs and Luc-mRNA: nucleoside-modified mRNA encoding firefly luciferase (Luc-mRNA) was dissolved in UltraPure DNase/RNase-free distilled water with an initial concentration of 4.0 mg/mL. IAJD molecules were dissolved in ethanol with an initial concentration of 80 mg/mL. 12.5 μL of Luc-mRNA solution was taken and placed into a clean RNAs free eppendorf (1.5 mL). Then 463 μL of acetate buffer (10 mM, pH 4.0) was added. Afterwards, 25 μL of IAJD in the ethanol stock solution was taken and rapidly injected into the above Luc-mRNA solution in acetate buffer followed by vortex for 5 seconds.

The nature of data set [2]: pKa measurements of individual IAJD molecules by titration. As to conditions: ethanol saturated with NaCl, titrated with 0.1 M aqueous HCl, titration. Here is the method: pKa measurements of individual IAJD Molecules was performed as follows. IAJD Molecules were first dissolved in ethanol (Sat. with NaCl) at a concentration of 1.5 mg/mL and the solution volume was 3 mL.
Then 0.1 M HCl solution was added to the above ethanol solution with an increment of 7.5 μL. The resulting pH after each addition of HCl solution was measured by an Thermo Scientific Orion Star A121 meter with Thermo Scientific Orion 8220BNWP pH probe. pKa was determined using the half equivalence point titration.

Data set [3] is described as follows: Stability of DNPs by DLS after storage at 5° C. Set-up: key to Original size distribution type (DLS curve) / Size distribution type (DLS curve): U: DLS curve showed unimodal size distribution; B: DLS curve showed bimodal size distribution; M: DLS curve showed multimodal size distribution. The settings on record: for pH Sample: DNPs: IAJD 4.0 mg/mL + Luc-mRNA 0.1 mg/mL, injection in acetate buffer pH 4.00; for PDI / Size (d, nm) / Original size distribution type (DLS curve): IAJD 4.0 mg/mL + Luc-mRNA 0.1 mg/mL; for PDI / Size (d, nm): acetate buffer; for Original size distribution type (DLS curve): before storage, acetate buffer pH 4.00. Here is the method: The stability of the DNPs as assayed by DLS. All the samples are prepared in acetate buffer. The stabilities of the constructs were ranked: Excellent (in bold)—the original sizes and distribution remains almost the same after storage; Good—the original relatively big sizes became smaller or broad size distribution became narrower; Not stable—the original relatively big sizes or broad size distribution remained almost the similar level, or the original relatively small sizes became bigger or narrow size distribution became broader.

Setting [4] is: Acetate buffer 10 mM pH 4.0, CIAJD 4 mg/mL, CLuc-mRNA 0.05 mg/mL.
Setting [5] is: Acetate buffer 10 mM pH 5.2, CIAJD 4 mg/mL, CLuc-mRNA 0.10 mg/mL.
The mark [6] stands for this setting: Citrate buffer 10 mM pH 3.0, CIAJD 4 mg/mL, CLuc-mRNA 0.05 mg/mL.
[7] abbreviates: DNP for in vivo, CIAJD 4.0 mg/mL, CLuc-mRNA 0.1 mg/mL, acetate buffer pH 5.2.
Where [8] appears, read: Table 12, DNPs, IAJD 4 mg/mL + Luc-mRNA 0.10 mg/mL, acetate buffer 10 mM pH 4.0.
The mark [9] stands for this setting: Table 13, DNPs, IAJD 4 mg/mL + Luc-mRNA 0.10 mg/mL, acetate buffer pH 4.0.
[10] abbreviates: Table 14, DNPs, IAJD 4 mg/mL + Luc-mRNA 0.10 mg/mL, acetate buffer pH 4.0.
Where [11] appears, read: Table 16, DNPs from IAJD 4 mg/mL and Luc-mRNA 0.10 mg/mL by injection in acetate buffer (10 mM, pH 4.0).
The mark [12] stands for this setting: Table 17, DNPs used in vivo, IAJD 4 mg/mL, Luc-mRNA 0.10 mg/mL, acetate pH 4.0.
[13] abbreviates: storage time 2 days, CIAJD 4.0 mg/mL, CLuc-mRNA 0.1 mg/mL, acetate buffer pH 4.0.
Where [14] appears, read: Acetate buffer 10 mM pH 4.0, CIAJD 4 mg/mL, CLuc-mRNA 0.10 mg/mL.
Where [15] appears, read: DNP for in vivo, CIAJD 4.0 mg/mL, CLuc-mRNA 0.1 mg/mL, acetate buffer pH 4.0.

The source of these data is patent US20240252677A1, “ONE-COMPONENT DELIVERY SYSTEM FOR NUCLEIC ACIDS” (The Trustees of the University of Pennsylvania, priority 2021, published 2024).

In general, pKa refers to the pH at which an ionisable group is half protonated.

With “3,5-Bis(dodecyloxy)benzyl 3-(4-methylpiperazin-1-yl)propanoate [IAJD 84]”, the PDI in data set [1] (setting [4]) is on record as 0.493; in data set [1] (setting [5]), 0.311; in data set [1] (setting [6]), 0.283; in data set [1] (setting [7]) it was 0.311. Moreover, the “Size (d, nm)” value in data set [1] (setting [4]) turned out to be 106 nm; in data set [1] (setting [5]), 199 nm; in data set [1] (setting [6]), 192 nm; in data set [1] (setting [7]) it was 199 nm.
On to `CCCCCCCCCCCCOc1cc(COC(=O)CCCN2CCCCC2)cc(OCCCCCCCCCCCC)c1` [IAJD 65, 3,5-Bis(dodecyloxy)benzyl 4-(piperidin-1-yl)butanoate], for which the PDI in data set [1] (setting [8]), in data set [1] (setting [9]) and in data set [1] (setting [10]) was 0.249 in each case. The “Size (d, nm)” value in data set [1] (setting [8]), in data set [1] (setting [9]) and in data set [1] (setting [10]) was 241 nm in each case. In addition, the pKa in data set [2] (Table 15, individual IAJD molecule) came to 7.4.
As to `CCCCCCCCCCCCOc1cc(COC(=O)c2cc(OCCOCCOCCCC(=O)CCCN3CCCCC3)c(OCCOCCOCCOCc3ccccc3)c(OCCOCCOCCOC(=O)CCCN3CCCCC3)c2)cc(OCCCCCCCCCCCC)c1` [IAJD 110], in data set [3], the “pH Sample” value worked out at 4.91 and the “Original size distribution type (DLS curve)” value is “(U)”. In data set [3] (after 75 days at 5° C.), the “Size distribution type (DLS curve)” value is recorded as “(U)”; the PDI was determined as 0.222; the “Size (d, nm)” value was 103 nm. Moreover, in data set [1] (setting [11]), the PDI was 0.274 and the “Size (d, nm)” value is 111 nm. Also, in data set [1] (setting [12]), the PDI is 0.274 and the “Size (d, nm)” value was found to be 111 nm. In addition, in data set [2] (individual IAJD molecules), the pKa stood at 7.64.
As for `CCCCCCCCCCCCCCOc1cc(COC(=O)c2cc(OCCOCCOCCCC(=O)CCCN3CCCCC3)c(OCCOCCOCCOCc3ccccc3)c(OCCOCCOCCOC(=O)CCCN3CCCCC3)c2)cc(OCCCCCCCCCCC)c1` [IAJD 156], in data set [3], the “pH Sample” value came out at 4.82 and the “Original size distribution type (DLS curve)” value is on record as “(U)”. Besides, in data set [3] (after 19 days at 5° C.), the “Size distribution type (DLS curve)” value was “(U)”; the PDI turned out to be 0.242; the “Size (d, nm)” value is 78 nm. Moreover, in data set [1] (setting [11]), the PDI is 0.236 and the “Size (d, nm)” value was determined as 75 nm. In data set [1] (setting [12]), the PDI is on record as 0.236 and the “Size (d, nm)” value is 75 nm. In data set [2] (individual IAJD molecules), this compound displayed a pKa of 7.43.
As for `CCCCCCCCCCCCCCCOc1cc(COC(=O)c2cc(OCCOCCOCCCC(=O)CCCN3CCCCC3)c(OCCOCCOCCOCc3ccccc3)c(OCCOCCOCCOC(=O)CCCN3CCCCC3)c2)cc(OCCCCCCCCCCC)c1` [IAJD 157], in data set [3], the “pH Sample” value came out at 4.84 and the “Original size distribution type (DLS curve)” value is given as “(U)”. In addition, in data set [3] (after 19 days at 5° C.), the “Size distribution type (DLS curve)” value is “(U)”; the PDI came to 0.255; the “Size (d, nm)” value was found to be 71 nm. Also, in data set [1] (setting [11]), the PDI was found to be 0.238 and the “Size (d, nm)” value is 68 nm. Moreover, in data set [1] (setting [12]), the PDI is listed as 0.238 and the “Size (d, nm)” value is 68 nm. In addition, the pKa in data set [2] (individual IAJD molecules) stood at 7.42.
As for `CCCCCCCCCCCCCCCCCOc1cc(COC(=O)c2cc(OCCOCCOCCCC(=O)CCCN3CCCCC3)c(OCCOCCOCCOCc3ccccc3)c(OCCOCCOCCOC(=O)CCCN3CCCCC3)c2)cc(OCCCCCCCCCCC)c1` [IAJD 158], in data set [3], the “pH Sample” value was 4.83 and the “Original size distribution type (DLS curve)” value is recorded as “(U)”. Also, in data set [3] (after 19 days at 5° C.), the “Size distribution type (DLS curve)” value was “(U)”; the PDI stood at 0.258; the “Size (d, nm)” value amounted to 77 nm. Moreover, in data set [1] (setting [11]), the PDI turned out to be 0.246 and the “Size (d, nm)” value was determined as 75 nm. Besides, in data set [1] (setting [12]), the PDI is given as 0.246 and the “Size (d, nm)” value was 75 nm. In addition, the pKa in data set [2] (individual IAJD molecules) was found to be 7.38.
`CCCCCCCCCCCCCCCCCOc1cc(CNC(=O)c2cc(OCCOCCOCCOC(=O)CCCN3CCCCC3)c(OCCCOCOCCOCc3ccccc3)c(OCCOCCOCCOC(=O)CCCN3CCCCC3)c2)cc(OCCCCCCCCCCCCCCCCC)c1` [IAJD 159]: in data set [3], the “pH Sample” value amounted to 4.72 and the “Original size distribution type (DLS curve)” value is “(U)”. In data set [3] (after 11 days at 5° C.), the “Size distribution type (DLS curve)” value is given as “(U)”; the PDI was found to be 0.220; the “Size (d, nm)” value is recorded as 93 nm. For the same compound, in data set [1] (setting [11]), the PDI amounted to 0.218 and the “Size (d, nm)” value was 91 nm. Besides, in data set [1] (setting [12]), the PDI is 0.218 and the “Size (d, nm)” value was found to be 91 nm. This compound also yielded a pKa in data set [2] (individual IAJD molecules) of 7.4.
Compound “Diheptyl 5,5′-((5-(((4-(4-methylpiperazin-1-yl)butanoyl)oxy)methyl)-1,3-phenylene)bis(oxy)) dipentanoate [IAJD 85]” returned a PDI after storage in data set [3] (setting [13]) of 0.271. The “Size (d, nm) after storage” value in data set [3] (setting [13]) turned out to be 114 nm. The PDI is 0.352 in data set [1] (setting [4]), 0.254 in data set [1] (setting [14]), 0.361 in data set [1] (setting [6]) and 0.254 in data set [1] (setting [15]). Further, the “Size (d, nm)” value in data set [1] (setting [4]) is on record as 99 nm; in data set [1] (setting [14]), 115 nm; in data set [1] (setting [15]), 115 nm.
